According to the supplement of paper PMC13380429:

Columns and labels:
[1] = system: A549-ACE2 infected with SARS-CoV-2; assay: cell count relative to DMSO; higher = less toxic; details: 24 h
Caco-2 [2] = assay: cell viability relative to DMSO; higher = less toxic; details: 72 h
Calu-3 [3] = assay: as above; details: 72 h
HepG2 [4] = assay: as above; details: 72 h
U2OS [5] = assay: as above; details: 72 h
Vero E6 [6] = assay: as above; details: 72 h
[7] = system: A549-ACE2 infected with SARS-CoV-2; assay: SARS-CoV-2 infection rate relative to DMSO; higher = more infection; details: 24 h
A549-ACE2 [8] = assay: phospholipidosis EC50; higher = less potent phospholipidosis inducer
A549-ACE2 [9] = assay: drug-induced phospholipidosis relative to tamoxifen; higher = more phospholipidosis
[10] = system: A549-ACE2 infected with SARS-CoV-2; assay: morphology score (similarity to uninfected cells); higher = more like uninfected cells; details: 24 h
Calu-3 [11] = assay: relative viability EC50 (midpoint between 100% and the lowest measured viability); higher = less toxic; details: 72 h
HepG2 [12] = assay: as above; details: 72 h
U2OS [13] = assay: as above; details: 72 h
Vero E6 [14] = assay: as above; details: 72 h
Caco-2 [15] = assay: drug sensitivity score (DSS) for viability; higher = more toxic; extreme values may be limits of the assay; details: 72 h
Calu-3 [16] = assay: as above; details: 72 h
HepG2 [17] = assay: as above; details: 72 h
U2OS [18] = assay: as above; details: 72 h
Vero E6 [19] = assay: as above; details: 72 h
Caco-2 [20] = assay: relative viability EC50 (midpoint between 100% and the lowest measured viability); higher = less toxic; details: 72 h

## CCN(CC)CCCCNc1ncc2cc(-c3cc(OC)cc(OC)c3)c(NC(=O)NC(C)(C)C)nc2n1
[1]; 0.1 µM
  cell count: 96%
[1]; 0.3 µM
  cell count: 90%
[1]; 1 µM
  cell count: 103%
[1]; 3 µM
  cell count: 109%
Caco-2 [2]; 1 nM
  cell viability: 102%
Caco-2 [2]; 10 nM
  cell viability: 105%
Caco-2 [2]; 100 nM
  cell viability: 103%
Caco-2 [2]; 1000 nM
  cell viability: 103%
Caco-2 [2]; 10000 nM
  cell viability: 69%
Calu-3 [3]; 1 nM
  cell viability: 98.9%
Calu-3 [3]; 10 nM
  cell viability: 98.9%
Calu-3 [3]; 100 nM
  cell viability: 100%
Calu-3 [3]; 1000 nM
  cell viability: 98.5%
Calu-3 [3]; 10000 nM
  cell viability: 75.6%
HepG2 [4]; 1 nM
  cell viability: 91.9%
HepG2 [4]; 10 nM
  cell viability: 101%
HepG2 [4]; 100 nM
  cell viability: 87.9%
HepG2 [4]; 1000 nM
  cell viability: 96.1%
HepG2 [4]; 10000 nM
  cell viability: 45.5%
U2OS [5]; 1 nM
  cell viability: 106%
U2OS [5]; 10 nM
  cell viability: 105%
U2OS [5]; 100 nM
  cell viability: 100%
U2OS [5]; 1000 nM
  cell viability: 85.8%
U2OS [5]; 10000 nM
  cell viability: 41.5%
Vero E6 [6]; 1 nM
  cell viability: 94.5%
Vero E6 [6]; 10 nM
  cell viability: 97.1%
Vero E6 [6]; 100 nM
  cell viability: 100%
Vero E6 [6]; 1000 nM
  cell viability: 90.1%
Vero E6 [6]; 10000 nM
  cell viability: 35.9%
[7]; 0.1 µM
  SARS-CoV-2 infection rate: 105%
[7]; 0.3 µM
  SARS-CoV-2 infection rate: 105%
[7]; 1 µM
  SARS-CoV-2 infection rate: 96%
[7]; 3 µM
  SARS-CoV-2 infection rate: 35%
A549-ACE2 [8]; 24 h
  phospholipidosis EC50: 3180 nM
A549-ACE2 [8]; 48 h
  phospholipidosis EC50: 3060 nM
A549-ACE2 [9]; 0.3 µM, 24 h
  drug-induced phospholipidosis: 4.11%
A549-ACE2 [9]; 0.3 µM, 48 h
  drug-induced phospholipidosis: 4.6%
A549-ACE2 [9]; 0.3 µM, 72 h
  drug-induced phospholipidosis: 6.12%
A549-ACE2 [9]; 0.833333 µM, 24 h
  drug-induced phospholipidosis: 13.5%
A549-ACE2 [9]; 0.833333 µM, 48 h
  drug-induced phospholipidosis: 12.8%
A549-ACE2 [9]; 0.833333 µM, 72 h
  drug-induced phospholipidosis: 13.2%
A549-ACE2 [9]; 3.33333 µM, 24 h
  drug-induced phospholipidosis: 106%
A549-ACE2 [9]; 3.33333 µM, 48 h
  drug-induced phospholipidosis: 151%
A549-ACE2 [9]; 6.66667 µM, 24 h
  drug-induced phospholipidosis: 165%
A549-ACE2 [9]; 6.66667 µM, 48 h
  drug-induced phospholipidosis: 224%
A549-ACE2 [9]; 10 µM, 24 h
  drug-induced phospholipidosis: 234%
A549-ACE2 [9]; 10 µM, 48 h
  drug-induced phospholipidosis: 200%
A549-ACE2 [9]; 10 µM, 72 h
  drug-induced phospholipidosis: 168%
A549-ACE2 [9]; 30 µM, 24 h
  drug-induced phospholipidosis: 84.5%
[10]; 0.1 µM
  morphology score: 0.01
[10]; 0.3 µM
  morphology score: -0.12
[10]; 1 µM
  morphology score: 0.28
[10]; 3 µM
  morphology score: 0.68
Calu-3 [11]
  relative viability EC50: > 10000 nM
HepG2 [12]
  relative viability EC50: 2580 nM
U2OS [13]
  relative viability EC50: 1580 nM
Vero E6 [14]
  relative viability EC50: 1960 nM
Caco-2 [15]
  drug sensitivity score: 1.2
Calu-3 [16]
  drug sensitivity score: 1.1
HepG2 [17]
  drug sensitivity score: 3.5
U2OS [18]
  drug sensitivity score: 5.4
Vero E6 [19]
  drug sensitivity score: 5.2

## Cc1cc(Nc2ncc(Cl)c(Nc3ccccc3S(=O)(=O)C(C)C)n2)c(OC(C)C)cc1C1CCNCC1 [ceritinib]
[1]; 0.1 µM
  cell count: 104%
[1]; 0.3 µM
  cell count: 100%
[1]; 1 µM
  cell count: 97%
[1]; 3 µM
  cell count: 90%
Caco-2 [2]; 1 nM
  cell viability: 99.3%
Caco-2 [2]; 10 nM
  cell viability: 88.1%
Caco-2 [2]; 100 nM
  cell viability: 107%
Caco-2 [2]; 1000 nM
  cell viability: 83.7%
Caco-2 [2]; 10000 nM
  cell viability: 10.1%
Calu-3 [3]; 1 nM
  cell viability: 102%
Calu-3 [3]; 10 nM
  cell viability: 108%
Calu-3 [3]; 100 nM
  cell viability: 102%
Calu-3 [3]; 1000 nM
  cell viability: 87.5%
Calu-3 [3]; 10000 nM
  cell viability: 0.5%
HepG2 [4]; 1 nM
  cell viability: 94.5%
HepG2 [4]; 10 nM
  cell viability: 91.3%
HepG2 [4]; 100 nM
  cell viability: 106%
HepG2 [4]; 1000 nM
  cell viability: 71.4%
HepG2 [4]; 10000 nM
  cell viability: 0.2%
U2OS [5]; 1 nM
  cell viability: 97.7%
U2OS [5]; 10 nM
  cell viability: 92.8%
U2OS [5]; 100 nM
  cell viability: 97.3%
U2OS [5]; 1000 nM
  cell viability: 86.2%
U2OS [5]; 10000 nM
  cell viability: 5.7%
Vero E6 [6]; 1 nM
  cell viability: 99.4%
Vero E6 [6]; 10 nM
  cell viability: 101%
Vero E6 [6]; 100 nM
  cell viability: 97.9%
Vero E6 [6]; 1000 nM
  cell viability: 95.9%
Vero E6 [6]; 10000 nM
  cell viability: 17%
[7]; 0.1 µM
  SARS-CoV-2 infection rate: 110%
[7]; 0.3 µM
  SARS-CoV-2 infection rate: 96%
[7]; 1 µM
  SARS-CoV-2 infection rate: 65%
[7]; 3 µM
  SARS-CoV-2 infection rate: 44%
A549-ACE2 [8]; 24 h
  phospholipidosis EC50: 2940 nM
A549-ACE2 [8]; 48 h
  phospholipidosis EC50: 1790 nM
A549-ACE2 [9]; 0.3 µM, 24 h
  drug-induced phospholipidosis: 9.71%
A549-ACE2 [9]; 0.3 µM, 48 h
  drug-induced phospholipidosis: 12.5%
A549-ACE2 [9]; 0.3 µM, 72 h
  drug-induced phospholipidosis: 11.3%
A549-ACE2 [9]; 0.833333 µM, 24 h
  drug-induced phospholipidosis: 10.9%
A549-ACE2 [9]; 0.833333 µM, 48 h
  drug-induced phospholipidosis: 7.38%
A549-ACE2 [9]; 0.833333 µM, 72 h
  drug-induced phospholipidosis: 5.24%
A549-ACE2 [9]; 3.33333 µM, 24 h
  drug-induced phospholipidosis: 62%
A549-ACE2 [9]; 3.33333 µM, 48 h
  drug-induced phospholipidosis: 84.3%
A549-ACE2 [9]; 3.33333 µM, 72 h
  drug-induced phospholipidosis: 83.1%
A549-ACE2 [9]; 6.66667 µM, 24 h
  drug-induced phospholipidosis: 78.4%
A549-ACE2 [9]; 6.66667 µM, 48 h
  drug-induced phospholipidosis: 87.6%
A549-ACE2 [9]; 10 µM, 24 h
  drug-induced phospholipidosis: 87.3%
A549-ACE2 [9]; 10 µM, 48 h
  drug-induced phospholipidosis: 93%
A549-ACE2 [9]; 30 µM, 24 h
  drug-induced phospholipidosis: 66.3%
A549-ACE2 [9]; 30 µM, 48 h
  drug-induced phospholipidosis: 69.7%
[10]; 0.1 µM
  morphology score: 0.01
[10]; 0.3 µM
  morphology score: 0.04
[10]; 1 µM
  morphology score: 0.56
[10]; 3 µM
  morphology score: 0.69
Caco-2 [20]
  relative viability EC50: 1820 nM
Calu-3 [11]
  relative viability EC50: 2150 nM
HepG2 [12]
  relative viability EC50: 1440 nM
U2OS [13]
  relative viability EC50: 2010 nM
Vero E6 [14]
  relative viability EC50: 2780 nM
Caco-2 [15]
  drug sensitivity score: 7.7
Calu-3 [16]
  drug sensitivity score: 7.6
HepG2 [17]
  drug sensitivity score: 9.7
U2OS [18]
  drug sensitivity score: 7.5
Vero E6 [19]
  drug sensitivity score: 5.2
